Measured values published in US20220390459A1, “RAPID, HIGH-INTENSITY CHEMILUMINESCENT DIOXETANES” (Beckman Coulter, Inc., priority 2019, published 2022).

System: alkaline phosphatase
Test: Chemiluminescence intensity over time after combining the phosphate dioxetane with alkaline phosphatase solution
Format: biochemical
Details: for profile of emission intensity over time (in words): alkaline phosphatase in 221 buffer, compound and TBE concentration differ per example; for intensity and speed of luminescence compared with other examples (in words): AP8, TBE enhancer in 221 buffer, concentrations differ per example
[1] = compound 1.25 mg/mL, TBE enhancer 5 mg/mL in 221 buffer, 100 μL + 10 μL AP8, 37° C.
[2] = compound 0.125 mg/mL, TBE enhancer 2.5 mg/mL in 221 buffer, 100 μL + 10 μL AP8, 37° C.
[3] = compound 0.25 mg/mL, TBE enhancer 5 mg/mL in 221 buffer, 100 μL + 10 μL AP8, 37° C.
[4] = compound 0.25 mg/mL, TBE enhancer 2.5 mg/mL in 221 buffer, 100 μL + 10 μL AP8, 37° C.
[5] = compound 0.2 mg/mL in 221 buffer without TBE enhancer, 100 μL + 10 μL AP9 [1.24E-20 mole/μL], 37° C.

Row | Structure (SMILES) | profile of emission intensity over time (in words) (37° C.) | intensity and speed of luminescence compared with other examples (in words) (37° C.) | time to reach maximum, steady-state intensity [3] [min] | Σ value [3] | also measured
1 | COC1(c2cccc(OP(=O)([O-])[O-])c2)OOC12C1CC3CC(C1)CC2C3.[Na+].[Na+] (centres unmarked) [Example 12, 4-methoxy-4-(3-phosphatephenyl)spiro[1,2-dioxetane-3,2′-adamantane], reference compound] | slow and gradual increase in emission intensity | – | – | – | profile of emission intensity over time (in words) (37° C., listed as Lumigen® PPD): slow luminescence; time to reach maximum light intensity or steady-state plateau [1]: more than 15 minutes; Σ value [1]: 2.27E+05
2 | COC1(c2ccc(Cl)c(OP(=O)([O-])[O-])c2)OOC12C1CC3CC2CC(Cl)(C3)C1.[Na+].[Na+] (centres unmarked) [Example 13, reference compound] | slow and gradual increase in emission intensity | – | – | – | profile of emission intensity over time (in words) (37° C., listed as Tropix CDP-Star®): slow luminescence; time to reach maximum light intensity or steady-state plateau [2]: more than 15 minutes; Σ value [2]: 1.91E+05
3 | COC1(c2ccc(-c3cccs3)c(OP(=O)([O-])[O-])c2)OOC12C1CC3CC(C1)CC2C3.[Na+].[Na+] (centres unmarked) [Example 14] | rapid increase in intensity | higher intensity and faster response compared to the compound of Examples 12-13 | ≤ 1 | 9.97E+05 | –
4 | COC1(c2ccc(-c3ccsc3)c(OP(=O)([O-])[O-])c2)OOC12C1CC3CC(C1)CC2C3.[Na+].[Na+] (centres unmarked) [Example 15] | rapid increase in intensity | higher intensity and faster response compared to the compound of Examples 12-13 | ≤ 2 | 7.38E+05 | –
5 | C=Cc1ccc(C2(OC)OOC23C2CC4CC(C2)CC3C4)cc1OP(=O)([O-])[O-].[Na+].[Na+] (centres unmarked) [Example 16] | rapid increase in intensity | higher intensity and faster response compared to the compound of Examples 12-15 | – | – | time to reach maximum, steady-state intensity [4]: less than 3 minutes; Σ value [4]: 1.59E+06
6 | COC1(c2ccc(-c3ccc(C#N)s3)c(OP(=O)([O-])[O-])c2)OOC12C1CC3CC(C1)CC2C3.[Na+].[Na+] (centres unmarked) [Example 17] | rapid increase in intensity | – | – | – | time to reach maximum, steady-state intensity [5]: ≤ 2 min; Σ value [5]: 2.77E+05
